Assay results: paper PMC6784244 (Toxins, 2019)
Values after ≈ are worked out from the molar mass of the structure shown. Values joined by “and” are separate entries in the source; they are usually repeats but may differ in a detail not shown here. Equal entries are not always repeated.

Key:
[1] = test system: Methicillin-resistant S. aureus strain MRSA USA300
[2] = test system: F. oxysporum (DSMZ 62316); conditions: DSMZ 62316, pH 7
[3] = test system: Nisin-resistant B. subtilis (DSMZ 347)
[4] = test system: HEK (human normal epidermal keratinocytes); conditions: 48 h
[5] = test system: Mycobacterium smegmatis (mc2155, ATCC 700084); conditions: mc2155, 72 h
A. niger (ATCC 9142) = conditions: ATCC 9142, pH 7
[6] = test system: Stachybotrys chartarum (DSMZ 2144); conditions: DSMZ 2144, pH 7
[7] = lipid monolayer at air-water interface on PBS pH 7.4, peptide 1 µM, initial pressure 10-30 mN/m, extrapolated to delta pressure 0
Description: (§1) Peptide–lipid interaction was evaluated using reconstituted lipid monolayer at the air–water interface as previously described. Pure prokaryotic and eukaryotic lipids used were: POPC (1-palmitoyl-2-oleoyl-glycero-3-phosphocholine), POPE (1-palmitoyl-2-oleoyl-sn-glycero-3-phosphoethanolamine), POPG (1-palmitoyl-2-oleoyl-sn-glycero-3-phospho-(1’-rac-glycerol), and cardiolipin, all from Avanti Polar Lipid (Alabama, USA). LTA (Lipoteichoic acid from B. subtilis) was obtained from Invivogen SAS (Toulouse, France). Pure lipids were reconstituted in chloroform:methanol (2:1, v:v) at 1 mg/mL and stored at −20 °C under nitrogen. The interaction and insertion of the ENN and BEA into lipids were evaluated through the measurement of their critical pressure of insertion as previously described. Briefly, lipids were spread using a 50 µL Hamilton’s syringe at the surface of 800 µL of sterile PBS creating a lipid monolayer at the air–water interface. Lipids were added until the surface pressure reached the desired value. After 5–10 min of incubation allowing evaporation of the solvent and stabilization of the initial surface pressure, 8 µL of ENN or BEA diluted in sterile PBS at 100 µM were injected into the 800 µL sub-phase of PBS under the lipid monolayer (pH 7.4, volume 800 µL) using a 10 µL Hamilton syringe giving a final concentration of peptides of 1 µM, preliminary experiments having shown that this concentration gave optimal insertion. The variation of the surface pressure caused by peptide injection was then continuously monitored using a fully automated microtensiometer (µTROUGH SX, Kibron Inc., Helsinki, Finland) until reaching equilibrium (maximal surface pressure increase being usually obtained after 15–25 min). The critical pressure of insertion of each peptide was determined by changing the initial pressure of lipid monolayer (from 10 and 30 mN/m) and measuring the variation of pressure caused by the insertion of the peptide. The critical pressure of insertion of each peptide in a particular lipid was determined graphically and calculated as the theoretical value of initial pressure of lipid monolayer not permissive to peptide insertion, i.e., causing a variation of pressure equal to 0 mN/m.

[8] = lipid monolayer on PBS pH 7.4, peptide 1 µM, extrapolated to delta pressure 0; -- = absence of interaction
Description: as §1

human erythrocytes = conditions: pH 7.4
[9] = test system: Vancomycin-resistant Enterococcus faecalis (DSMZ 13591)
[10] = test system: Candida albicans (DSMZ 10697); conditions: DSMZ 10697, 24 h, pH 7
A. ochraceus (DSMZ 824) = conditions: DSMZ 824, pH 7
[11] = test system: Staphylococcus aureus (ATCC CRM-6538P)
[12] = test system: Penicillium verrucosum (DSMZ 12639); conditions: DSMZ 12639, pH 7
[13] = test system: Pseudomonas aeruginosa (ATCC CRM-9027)
[14] = parameters: species or system B. subtilis; conditions: lipid monolayer on PBS pH 7.4, peptide 1 µM, extrapolated to delta pressure 0; -- = absence of interaction
Description: as §1

C. perfringens [15] = assay type: cell-based, Clostridium perfringens
[16] = test system: N87 (human gastric cell line); conditions: 48 h
[17] = test system: Bacillus subtilis (ATCC 6633)
[18] = test system: Helicobacter pylori (ATCC 43504)
[19] = test system: Aspergillus flavus (DSMZ 1959); conditions: DSMZ 1959, pH 7
[20] = test system: Escherichia coli (ATCC 8739)
[21] = test system: Acinetobacter baumannii (CIP 110431)
C. perfringens [22] = assay type: cell-based, Clostridium perfringens; remark: listed apart in the source
[23] = test system: Clostridium perfringens (ATCC 13124)

SMILES	MIC, S. aureus MRSA [1] [µM]	MIC, F. oxysporum [2] [µM]	MIC, B. subtilis NR [3] [µM]	IC50 [4] [nM]	MIC, M. smegmatis [5] [µM]	MIC, A. niger (A. niger (ATCC 9142)) [µM]	MIC, S. chartarum [6] [µM]	critical pressure of insertion, POPC [7] [mN/m]	critical pressure of insertion, POPE [7] [mN/m]	critical pressure of insertion, POPG [8] [mN/m]	HC50 (dose causing 50% hemolysis), Erythrocytes (human erythrocytes) [µM]	MIC, E. faecalis [9] [µM]	MIC, C. albicans [10] [µM]	MIC, A. ochraceus (A. ochraceus (DSMZ 824)) [µM]	MIC, S. aureus [11] [µM]	MIC, P. verrucosum [12] [µM]	MIC, P. aeruginosa [13] [µM]	critical pressure of insertion, LTA [14] [mN/m]	Known/possible target (C. perfringens [15])	Observed Morphology (C. perfringens [15])	also measured
CC[C@H](C)[C@H]1C(=O)O[C@H](C(C)C)C(=O)N(C)[C@@H]([C@@H](C)CC)C(=O)O[C@H](C(C)C)C(=O)N(C)[C@@H](C(C)C)C(=O)O[C@H](C(C)C)C(=O)N1C [ENN A1]	12.5 to 25	>100	25 (≈ 16.7 µg/mL)	2300 ± 100	3.12 (≈ 2.08 µg/mL)	>100	>100	38.06	34.38	41.10	162.7 ± 22.8	6.25 (≈ 4.17 µg/mL)	1.5 (≈ 1 µg/mL)	>100	12.5 to 25	>100	>100	53.71	RNA biosynthesis	• No cell elongation • DNA condensed in one filament crossing the cells	IC50 [16]: 3 ± 2 nM; MIC, B. subtilis [17]: 12.5 to 25 µM; MIC, H. pylori [18]: >100 µM; MIC, A. flavus [19]: >100 µM; MIC, E. coli [20]: >100 µM; MIC, A. baumannii [21]: >100 µM; membrane depolarization at 100 µM (C. perfringens [22]): 97.4 ± 5.3%; membrane depolarization at four times their MIC (C. perfringens [22]): 75.3 ± 2.0%
CC[C@H](C)[C@H]1C(=O)O[C@H](C(C)C)C(=O)N(C)[C@@H]([C@@H](C)CC)C(=O)O[C@H](C(C)C)C(=O)N(C)[C@@H]([C@@H](C)CC)C(=O)O[C@H](C(C)C)C(=O)N1C [ENN A]	6.25 to 12.5	>100	6.25 to 12.5	2000 ± 100	6.25 (≈ 4.26 µg/mL)	>100	>100	40.28	38.12	44.75	68.7	3.12 (≈ 2.13 µg/mL)	1.5 (≈ 1.02 µg/mL)	>100	6.25 to 12.5	>100	>100	56.1	RNA biosynthesis	• Some cell elongation • DNA condensed in one filament crossing the cells	MIC, C. perfringens [23]: 3.12 µM (≈ 2.13 µg/mL); IC50 [16]: 10 ± 10 nM; MIC, B. subtilis [17]: 6.25 to 12.5 µM; MIC, H. pylori [18]: >100 µM; MIC, A. flavus [19]: >100 µM; MIC, E. coli [20]: >100 µM; MIC, A. baumannii [21]: >100 µM; membrane depolarization at 100 µM (C. perfringens [22]): 108.9 ± 7.3%; membrane depolarization at four times their MIC (C. perfringens [22]): 80.8 ± 3.2%
CC[C@H](C)[C@H]1C(=O)O[C@H](C(C)C)C(=O)N(C)[C@@H](C(C)C)C(=O)O[C@H](C(C)C)C(=O)N(C)[C@@H](C(C)C)C(=O)O[C@H](C(C)C)C(=O)N1C [ENN B1]	25 (≈ 16.3 µg/mL)	>100	50 (≈ 32.7 µg/mL)	3300 ± 500	6.25 (≈ 4.09 µg/mL)	>100	>100	36.19	31.87	41.71	356.4 ± 59.3	12.5 (≈ 8.17 µg/mL)	3.12 (≈ 2.04 µg/mL)	>100	25 (≈ 16.3 µg/mL)	>100	>100	43.62	Protein biosynthesis	• Some cell elongation (1.5–2 times compared to control) • DNA condensed in 1–4 circles per cells	MIC, C. perfringens [23]: 6.25 µM (≈ 4.09 µg/mL); IC50 [16]: 8 ± 8 nM; MIC, B. subtilis [17]: 25 to 50 µM; MIC, H. pylori [18]: >100 µM; MIC, A. flavus [19]: >100 µM; MIC, E. coli [20]: >100 µM; MIC, A. baumannii [21]: >100 µM; membrane depolarization at 100 µM (C. perfringens [22]): 97.6 ± 9.1%; membrane depolarization at four times their MIC (C. perfringens [22]): 68.0 ± 4.3%; membrane depolarization at their MIC (C. perfringens [22]): 47.4 ± 4.6% and 30–40%
CC(C)[C@H]1C(=O)O[C@H](C(C)C)C(=O)N(C)[C@@H](C(C)C)C(=O)O[C@H](C(C)C)C(=O)N(C)[C@@H](C(C)C)C(=O)O[C@H](C(C)C)C(=O)N1C [ENN B]	>100	>100	>100	54200 ± 35300	100 (≈ 64 µg/mL)	>100	>100	32.92	30.15	34.67	534.5	>100	6.25 (≈ 4 µg/mL)	>100	>100	>100	>100	38.9	Protein biosynthesis	• Some cell elongation (1.5–2 times compared to control) • DNA condensed in 1–4 circles per cells	MIC, C. perfringens [23]: 12.5 µM (≈ 8 µg/mL); IC50 [16]: 1700 ± 100 nM; MIC, B. subtilis [17]: >100 µM; MIC, H. pylori [18]: >100 µM; MIC, A. flavus [19]: >100 µM; MIC, E. coli [20]: >100 µM; MIC, A. baumannii [21]: >100 µM; membrane depolarization at 100 µM (C. perfringens [22]): 44.9 ± 8.7%; membrane depolarization at four times their MIC (C. perfringens [22]): 44.2 ±1.8%; membrane depolarization at their MIC (C. perfringens [22]): 36.4 ± 3.8% and 30–40%
